Reference: US11802120B2, “Fused cyclic urea derivatives as CRHR2 antagonist” (RaQualia Pharma Inc., priority 2018, dated 2023)

The molecules below were run against T1, human CRHR2-alpha (Homo sapiens, UniProt Q13324) (assay: cAMP functional assay for human CRHR2 (LANCE Ultra cAMP, TR-FRET)). Details: CHO-K1 cells expressing human CRHR2-alpha, agonist human urocortin2 at EC80, cAMP; read-out: IC50 against CRHR2.
T1 sequence (Q13324 1-411): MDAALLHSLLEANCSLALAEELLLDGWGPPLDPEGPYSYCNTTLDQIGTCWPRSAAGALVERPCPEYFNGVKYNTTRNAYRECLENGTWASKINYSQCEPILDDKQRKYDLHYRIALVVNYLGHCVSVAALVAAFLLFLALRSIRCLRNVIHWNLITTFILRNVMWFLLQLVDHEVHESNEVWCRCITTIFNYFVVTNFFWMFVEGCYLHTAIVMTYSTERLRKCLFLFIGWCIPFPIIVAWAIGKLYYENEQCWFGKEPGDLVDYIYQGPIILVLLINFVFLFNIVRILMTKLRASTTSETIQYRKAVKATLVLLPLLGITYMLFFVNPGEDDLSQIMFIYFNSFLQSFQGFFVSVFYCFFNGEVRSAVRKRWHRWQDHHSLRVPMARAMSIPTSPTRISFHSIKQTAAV
Format: cell-based
Summary of the method: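 CHO-K1 cells stably expressing each receptor, serum-starved and cryopreserved, were preincubated with compound 30 min at 25° C in HBSS buffer with 0.5 mM IBMX, pH 7.4, then stimulated 30 min with EC80 agonist (urocortin2 for CRHR2, CRF for CRHR1). cAMP read by TR-FRET; IC50 from percent-inhibition curves.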

| SMILES | IC50 [nM] |
| --- | --- |
| Cc1cc2cc(-n3c(=O)n(C[C@H]4CC[C@H](NC(=O)c5cc(Cl)cnc5C(F)F)CC4)c4ccccc43)cnc2[nH]1 [Example 673, 5-chloro-2-(difluoromethyl)-N-((1r,4r)-4-((3-(2-methyl-1H-pyrrolo[2,3-b]pyridin-5-yl)-2-oxo-2,3-dihydro-1H-benzo[d]imidazol-1-yl)methyl)cyclohexyl)nicotinamide] | < 300 |
| O=C(Cn1c(=O)n(C[C@H]2CC[C@H](NC(=O)c3cc(Cl)cnc3C(F)(F)F)CC2)c2ccccc21)c1ccccc1 [Example 285, 5-chloro-N-((1r,4r)-4-((2-oxo-3-(2-oxo-2-phenylethyl)-2,3-dihydro-1H-benzo[d]imidazol-1-yl)methyl)cyclohexyl)-2-(trifluoromethyl)nicotinamide] | < 300 |
| Cc1ncc(Cl)cc1C(=O)N[C@H]1CC[C@H](Cn2c(=O)n(-c3ccc4ncnn4c3)c3ccccc32)CC1 [Example 278, N-((1r,4r)-4-((3-([1,2,4]triazolo [1,5-a]pyridin-6-yl)-2-oxo-2,3-dihydro-1H-benzo[d]imidazol-1-yl)methyl)cyclohexyl)-5-chloro-2-methylnicotinamide] | < 300 |
| CNC(=O)COc1ccc(-n2c(=O)n(C[C@H]3CC[C@H](NC(=O)c4cc(Cl)cnc4C(F)F)CC3)c3ccccc32)cn1 [Example 500, 5-chloro-2-(difluoromethyl)-N-((1r,4r)-4-((3-(6-(2-(methylamino)-2-oxoethoxy)pyridin-3-yl)-2-oxo-2,3-dihydro-1H-benzo[d]imidazol-1-yl)methyl)cyclohexyl)nicotinamide] | < 300 |
| Cc1ncc(Cl)cc1C(=O)N[C@H]1CC[C@H](Cn2c(=O)n(-c3ccnc(-c4ccn(C)n4)c3)c3ccccc32)CC1 [Example 655, 5-chloro-2-methyl-N-((1r,4r)-4-((3-(2-(1-methyl-1H-pyrazol-3-yl)pyridin-4-yl)-2-oxo-2,3-dihydro-1H-benzo[d]imidazol-1-yl)methyl)cyclohexyl)nicotinamide] | < 300 |
| Cc1ncc(Cl)cc1C(=O)N[C@H]1CC[C@H](Cn2c(=O)n(-c3ccc(-c4ccccc4)nc3)c3ccccc32)CC1 [Example 89, 5-chloro-2-methyl-N-((1r,4r)-4-((2-oxo-3-(6-phenylpyridin-3-yl)-2,3-dihydro-1H-benzo[d]imidazol-1-yl)methyl)cyclohexyl)nicotinamide] | < 300 |
| CC(F)(F)CNc1ccc(-n2c(=O)n(C[C@H]3CC[C@H](NC(=O)c4cc(Cl)cnc4C(F)F)CC3)c3ccccc32)cn1 [Example 515, 5-chloro-2-(difluoromethyl)-N-((1r,4r)-4-((3-(6-((2,2-difluoropropyl)amino)pyridin-3-yl)-2-oxo-2,3-dihydro-1H-benzo[d]imidazol-1-yl)methyl)cyclohexyl)nicotinamide] | < 300 |
| Cc1ncc(Cl)cc1C(=O)N[C@H]1CC[C@H](Cn2c(=O)n(-c3ccc4[nH]nc(C)c4c3)c3ncccc32)CC1 [Example 212, 5-chloro-2-methyl-N-((1r,4r)-4-((3-(3-methyl-1H-indazol-5-yl)-2-oxo-2,3-dihydro-1H-imidazo[4,5-b]pyridin-1-yl)methyl)cyclohexyl)nicotinamide] | < 300 |
| Cc1csc(CNC(=O)c2ccc(-n3c(=O)n(C[C@H]4CC[C@H](NC(=O)c5cc(Cl)cnc5C)CC4)c4ccccc43)cn2)n1 [Example 180, 5-(3-(((1r,4r)-4-(5-chloro-2-methylnicotinamido)cyclo-hexyl)methyl)-2-oxo-2,3-dihydro-1H-benzo[d]imidazol-1-yl)-N-((4-methylthiazol-2-yl)methyl)picolinamide] | < 300 |
| CNc1cc(C)c(-n2c(=O)n(C[C@H]3CC[C@H](NC(=O)c4cc(Cl)cnc4C)CC3)c3ccccc32)cn1 [Example 435, 5-chloro-2-methyl-N-((1r,4r)-4-((3-(4-methyl-6-(methylamino)pyridin-3-yl)-2-oxo-2,3-dihydro-1H-benzo[d]imidazol-1-yl)methyl)cyclohexyl)nicotinamide] | < 300 |
| Cc1ncc(Cl)cc1C(=O)N[C@H]1CC[C@H](Cn2c(=O)n(-c3ccc(C(=O)Nc4cc[nH]n4)nc3)c3ccccc32)CC1 [Example 183, 5-(3-(((1r,4r)-4-(5-chloro-2-methylnicotinamido)cyclo-hexyl)methyl)-2-oxo-2,3-dihydro-1H-benzo[d]imidazol-1-yl)-N-(1H-pyrazol-3-yl) picolinamide] | < 300 |
| CNC(=O)c1ccc(-n2c(=O)n(C[C@H]3CC[C@H](NC(=O)c4cc(Cl)cnc4C(F)F)CC3)c3cc(OC)ccc32)cn1 [Example 528, 5-(3-(((1r,4r)-4-(5-chloro-2-(difluoromethyl)nicotinamido)cyclohexyl)methyl)-5-methoxy-2-oxo-2,3-dihydro-1H-benzo [d]imidazol-1-yl)-N-methylpicolinamide] | < 300 |
| O=C(N[C@H]1CC[C@H](Cn2c(=O)n(-c3cnc4ccccc4c3)c3ccccc32)CC1)c1cc(Cl)cnc1C(F)(F)F [Example 352, 5-chloro-N-((1r,4r)-4-((2-oxo-3-(quinolin-3-yl)-2,3-dihydro-1H-benzo[d]imidazol-1-yl)methyl)cyclo-hexyl)-2-(trifluoromethyl) nicotinamide] | < 300 |
| Cc1ncc(Cl)cc1C(=O)N[C@H]1CC[C@H](Cn2c(=O)n(-c3cc(N(C)C)ccc3C#N)c3ccccc32)CC1 [Example 273, 5-chloro-N-((1r,4r)-4-((3-(2-cyano-5-(dimethylamino)phenyl)-2-oxo-2,3-dihydro-1H-benzo[d]imidazol-1-yl)methyl)cyclohexyl)-2-methylnicotinamide] | < 300 |
| CNc1ccc(-n2c(=O)n(C[C@H]3CC[C@H](NC(=O)c4cc(Cl)cnc4C)CC3)c3ccccc32)cc1 [Example 646, 5-chloro-2-methyl-N-((1r,4r)-4-((3-(4-(methylamino)phenyl)-2-oxo-2,3-dihydro-1H-benzo[d]imidazol-1-yl)methyl)cyclohexyl)nicotinamide] | < 300 |
| Cn1c(CO)cc2cc(-n3c(=O)n(C[C@H]4CC[C@H](NC(=O)c5cc(Cl)cnc5C(F)F)CC4)c4ccccc43)cnc21 [Example 732, 5-chloro-2-(difluoromethyl)-N-((1r,4r)-4-((3-(2-(hydroxymethyl)-1-methyl-1H-pyrrolo[2,3-b]pyridin-5-yl)-2-oxo-2,3-dihydro-1H-benzo[d]imidazol-1-yl)methyl)cyclohexyl)nicotinamide] | < 300 |
| COc1ccc(Cl)c(-n2c(=O)n(C[C@H]3CC[C@H](NC(=O)c4cc(Cl)cnc4C(F)F)CC3)c3cccnc32)c1 [Example 453, 5-chloro-N-((1r,4r)-4-((3-(2-chloro-5-methoxyphenyl)-2-oxo-2,3-dihydro-1H-imidazo [4,5-b]pyridin-1-yl)methyl)cyclohexyl)-2-(difluoromethyl) nicotinamide] | < 300 |
| Cc1ncc(Cl)cc1C(=O)N[C@H]1CC[C@H](Cn2c(=O)n(-c3cnc4c(c3)OCCN4C)c3ccccc32)CC1 [Example 160, 5-chloro-2-methyl-N-((1r,4r)-4-((3-(4-methyl-3,4-dihydro-2H-pyrido[3,2-b][1,4]oxazin-7-yl)-2-oxo-2,3-dihydro-1H-benzo [d]imidazol-1-yl)methyl)cyclo-hexyl)nicotinamide] | < 300 |
